The values that follow are results of earlier work, collected in patent US20070281881A1, “Methods And Compositions Comprising Non-Peptide Small Molecules That Solubilize Beta Amyloid Peptide Fiber” (priority 2004, published 2007).

Structures are written as SMILES.

The target of one data set is Aβ (Homo sapiens, UniProt P05067). Conditions: result in words, from cited studies.
The conditions of data set [1]: result in words, from cited studies.

Aβ, sequence (P05067 672-713 limits assumed): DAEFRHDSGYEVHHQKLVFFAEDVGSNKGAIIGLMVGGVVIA

As for `CN1CCCC1c1cccnc1` (stereo not drawn) [nicotine], at Aβ, the “binding to Aβ and effect on Aβ aggregation” value was “binds and slows down Aβ aggregation”. Turning to `COc1ccc2[nH]cc(CCNC(C)=O)c2c1` [Melatonin], on Aβ, the “binding to Aβ and effect on Aβ aggregation” value was “binds and slows down Aβ aggregation”. In addition, the “crossing of the blood brain barrier” value in data set [1] is reported as “easily crosses the blood brain barrier”.
